Experimental data reported in patent US8487006B2, “Method of enhancing TGF-β signalling” (Auxagen, Inc., priority 2008, dated 2013).

Tests used:
[1] = tested on: PAI-1 expression in Mv1Lu cells; experiment: TGF-β1-stimulated expression of PAI-1 mRNA (Northern blot / real-time RT-PCR) in Mv1Lu cells; format: cell-based
Description: (A-G) Cells were pretreated with vehicle only or with several concentrations (as indicated) of β-CD (A,C), thioridazine (B), TFP (D), chloroquine (E), monensin (F) and MDC (G) at 37° C. for 1 h. Treated cells were then stimulated with 50 pM TGF-β1. After 2 h at 37° C., the mRNAs of PAI-1 and G3PDH (as control) in the cell lysates were analyzed by Northern blot (top) and quantified using a PhosphoImager (bottom) (A,B) or real-time RT-PCR (C to G). The TGF-β-stimulated expression of PAI-1 in cells treated with vehicle only was taken as 100% (A, B) or 1 fold (C to G) of control. […] (H) Cells were pretreated with several concentrations (as indicated) of dynasore at 37° C. for 1 h and then stimulated with 50 pM TGF-β1. After 2 h at 37° C., the mRNA of PAI-1 was quantitated by real-time RT-PCR. The relative level of PAI-1 mRNA in cells treated with TGF-β1 alone was taken as 1 (100%). Experiments were carried out in triplicate. The data shown is representative of 3 independent experiments.
The PAI-1 gene is one of the most studied genes responsive to TGF-β stimulation^4,5. The promotor region of the PAI-gene contains several Smad2/3 binding sites that have been used as the TGF-β responsive elements to enhance the expression of a reported gene^4,5. […] Cells were pretreated with vehicle only and several concentrations of β-CD, thioridazine, TFP, MDC, monensin and chloroquine at 37° C. for 1 h. Cells were then stimulated with 50 pM TGF-β1. After 2 h at 37° C., the relative levels of PAI-1 mRNA were analyzed by quantitative Northern blot analysis (FIGS. 3A and 3B) and real-time RT-PCR (FIG. 3C-3G).

[2] = tested on: TGF-β1-stimulated Smad2 phosphorylation in Mv1Lu cells; experiment: TGF-β1-stimulated Smad2 phosphorylation, quantitative Western blot (P-Smad2/Smad2); format: cell-based; conditions: several concentrations of the inhibitors, 100 pM TGF-β1 for 30 min
Description: (A-I, K) Cells were pretreated with 10 mg/ml β-CD (A, K), 20 LM MDC (B), 40 μM monensin (C), 20 μM TFP (D) and 0.45 M sucrose (K) or several concentrations (as indicated) of β-CD (E), TFP (F), monensin (G), chloroquine (H), dynasore (I), at 37° C. for 1 h. The cells were then stimulated with vehicle only or […] TGF-β1 (A to I) or several concentrations (as indicated) of TGF-β1 (K). After several time periods, as indicated, at 37° C., cell lysates were analysed by 7.5% SDS PAGE followed by Western blot analysis using antibodies to P-Smad2 and Smad2 and chemiluminescence development (a or top) and quantitation by densitometry (b or bottom). The relative level of P-Smad2 was expressed as arbitrary units (A.U.) (A, B, C, D, K) (b). The relative level of P-Smad2 in cells treated with TGF-β alone was taken as 100% of control (E to I, bottom). The data shown is representative of 3 independent experiments. (J) Cells were pretreated with 10 mg/ml β-CD (c,d) at 37° C. for 1 h. The cells were then stimulated with vehicle only (a) or with 100 pM TGF-β (b,d). After 30 min at 37° C. the cells were fixed and subjected to indirect immunofluorescent staining using antibody to P-Smad2. The magnification is 200×. The data shown is representative of 3 independent experiments.
If TGF-β-induced signaling occurs in endosomes, as reported previously^6-15, inhibitors of clathrin-dependent endocytosis would be expected to attenuate TGF-β-stimulated signaling such as Smad2 phosphorylation and nuclear colocalization^4,5. To test this, Mv1Lu cells were pretreated with vehicle only or with clathrin-dependent endocytosis inhibitors at 37° C. for 30 min and then treated with or without 100 pM TGF-β1. After several time periods, the relative levels of P-Smad2 in treated and stimulated cells were analyzed by quantitative Western blot analysis using antibodies to P-Smad2 and Smad2. […] After stimulation of cells with TGF-β1 for 60 min, β-CD, TFP, MDC and monensin enhanced TGF-β1-stimulated Smad2 phosphorylation by ˜1.5-2.5 fold (FIGS. 1Ab, 1Bb, 1Cb, and 1Db). To further characterize the effects of these inhibitors on Smad2 phosphorylation, Mv1Lu cells were pretreated with vehicle only or with several concentrations of the inhibitors at 37° C. for 30 min and then stimulated with 100 pM of TGF-β1. After 30 min at 37° C., cell lysates were subjected to Western blot analysis using antibodies to P-Smad2 and Smad2 followed by quantitation with densitometry. […] To determine the effect of β-CD on TGF-β1-stimulated nuclear localization of P-Smad2, Mv1Lu cells were pretreated with vehicle only or with β-CD (10 mg/ml). After 1 h at 37° C., cells were stimulated with TGF-β1 ([…]) for 30 min. The nuclear localization of P-Smad2 was then analyzed by indirect fluorescent staining.
To define the coated-pit stages that are important in TGF-β1-induced signaling, we treated Mv1Lu cells with hyperosmotic sucrose (0.45 M) or β-CD and examined TGF-β1-stimulated Smad2 phosphorylation in these cells. […] In cells stimulated with 100 pM TGF-β1, hyperosmotic sucrose attenuated Smad2 phosphorylation by ˜60% (FIG. 1Kb). On the other hand, β-CD enhanced TGF-β1-stimulated Smad2 phosphorylation at all concentrations of TGF-β1. It enhanced TGF-β1-stimulated Smad2 phosphorylation by 2-4 fold when compared with the control (treatment without β-CD) (FIGS. 1Ka and 1Kb).

O=C(N/N=C/c1ccc(O)c(O)c1)c1cc2ccccc2cc1O [dynasore]
stimulation of PAI-1 expression by dynasore alone ([1]; dynasore 25 μM without TGF-β1, real-time RT-PCR): to the same extent as with 50 pM TGF-β1 alone | enhancement of TGF-β-stimulated expression of PAI-1 ([1]; dynasore 50 μM): 4-5 fold | enhancement of TGF-β1-stimulated PAI-1 expression ([1]; dynasore 50 μM, 50 pM TGF-β1 for 2 h, real-time RT-PCR): ~5 fold | concentration dependence of the effect on TGF-β1-stimulated Smad2 phosphorylation [2]: enhanced TGF-β1-stimulated Smad2 phosphorylation in a concentration-dependent manner
